According to patent publication US12344600B2, “c-Myc mRNA translation modulators and uses thereof in the treatment of cancer” (Anima Biotech Inc., priority 2022, dated 2025):

system: c-Myc; assay: c-Myc immunofluorescence assay; assay type: cell-based, human; settings: A549 cells, 24 hours, anti-c-Myc immunofluorescence
Summary of the method: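 Read-out is imaged c-Myc immunofluorescence, nucleus-segmented, in A549 lung carcinoma cells exposed to compound dose series for 24 h after 48 h growth. Fixation 4% paraformaldehyde, Triton permeabilization, antibody staining at room temperature; EC50 from logistic fit of signal versus concentration.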

| SMILES | Myc Efficacy (−LogEC50) |
| --- | --- |
| COc1ccc(-c2noc(C3CN(C(=O)N4CCC(C)CC4)C3)n2)cc1 [Compound 153, (3-(3-(4-methoxyphenyl)-1,2,4-oxadiazol-5-yl)azetidin-1-yl)(4-methylpiperidin-1-yl)methanone] | + (+ >3 and <5) |
| COc1ccc(-c2noc(N3CCN(C(=O)N4CCOCC4)CC3)n2)cc1 [Compound 144, (4-(3-(4-methoxyphenyl)-1,2,4-oxadiazol-5-yl)piperazin-1-yl)(morpholino)methanone] | + (+ >3 and <5) |
| COc1ccc(-c2noc(N3CCC(C(=O)NCC4CCN(C[C@H]5CCN5)C4)CC3)n2)cc1 (stereo partly drawn) [Compound 413, N-((1-(((R)-azetidin-2-yl)methyl)pyrrolidin-3-yl)methyl)-1-(3-(4-methoxyphenyl)-1,2,4-oxadiazol-5-yl)piperidine-4-carboxamide] | − (− ≤3) |
| COc1ccc(-c2noc(N3CCC(C(=O)NCC4CCN(Cc5ccncc5C)C4)CC3)n2)cc1 (centres unmarked) [Compound 348, 1-(3-(4-methoxyphenyl)-1,2,4-oxadiazol-5-yl)-N-((1-((3-methylpyridin-4-yl)methyl)pyrrolidin-3-yl)methyl)piperidine-4-carboxamide] | ++ (++ ≥5 and <6) |
| COc1ccc(-c2noc(N3CCC(C(=O)NCc4ccc5c(c4)CCO5)CC3)n2)cc1 [Compound 281, N-((2,3-dihydrobenzofuran-5-yl)methyl)-1-(3-(4-methoxyphenyl)-1,2,4-oxadiazol-5-yl)piperidine-4-carboxamide] | + (+ >3 and <5) |
| COc1ccc(-c2noc(N3CCC(C(=O)NCC4CCN(c5ccccc5)C4)CC3)n2)cc1 (centres unmarked) [Compound 234, 1-(3-(4-methoxyphenyl)-1,2,4-oxadiazol-5-yl)-N-((1-phenylpyrrolidin-3-yl)methyl)piperidine-4-carboxamide] | + (+ >3 and <5) |
| COc1cnc(-c2noc(N3CCC(C(=O)NCC4CCN(Cc5ccc(C)cc5)C4)CC3)n2)nc1 (centres unmarked) [Compound 247, 1-(3-(5-methoxypyrimidin-2-yl)-1,2,4-oxadiazol-5-yl)-N-((1-(4-methylbenzyl)pyrrolidin-3-yl)methyl)piperidine-4-carboxamide] | + (+ >3 and <5) |
| CN1CCC[C@@H](CN2CC[C@H](CNC(=O)C3CCN(c4nc(-c5ccc(Cl)cc5)no4)CC3)C2)C1 [Compound 475, 1-(3-(4-chlorophenyl)-1,2,4-oxadiazol-5-yl)-N-(((R)-1-(((R)-1-methylpiperidin-3-yl)methyl)pyrrolidin-3-yl)methyl)piperidine-4-carboxamide] | ++ (++ ≥5 and <6) |
| COc1ccc(-c2noc(N3CCC(C(=O)NCc4cc5ccccc5[nH]4)CC3)n2)cc1 [Compound 285, N-((1H-indol-2-yl)methyl)-1-(3-(4-methoxyphenyl)-1,2,4-oxadiazol-5-yl)piperidine-4-carboxamide] | ++ (++ ≥5 and <6) |
| COc1ccc(-c2noc(N3CCC(C(=O)NCC4CCN(Cc5cc(C)co5)C4)CC3)n2)cc1 (centres unmarked) [Compound 382, 1-(3-(4-methoxyphenyl)-1,2,4-oxadiazol-5-yl)-N-((1-((4-methylfuran-2-yl)methyl)pyrrolidin-3-yl)methyl)piperidine-4-carboxamide] | ++ (++ ≥5 and <6) |
| COc1ccc(-c2noc(N3CCC(C(=O)NC4(C(O)c5ccccc5)CC4)CC3)n2)cc1 (centres unmarked) [Compound 258, N-(1-(hydroxy(phenyl)methyl)cyclopropyl)-1-(3-(4-methoxyphenyl)-1,2,4-oxadiazol-5-yl)piperidine-4-carboxamide] | + (+ >3 and <5) |
| COc1ccc(-c2noc(N3CCC(C(=O)NCC4CCN(Cc5cnsc5)C4)CC3)n2)cc1 (centres unmarked) [Compound 373, N-((1-(isothiazol-4-ylmethyl)pyrrolidin-3-yl)methyl)-1-(3-(4-methoxyphenyl)-1,2,4-oxadiazol-5-yl)piperidine-4-carboxamide] | ++ (++ ≥5 and <6) |
| COc1ccc(-c2noc(N3CCC(C(=O)NCC4CCN(Cc5cncs5)C4)CC3)n2)cc1 (centres unmarked) [Compound 341, 1-(3-(4-methoxyphenyl)-1,2,4-oxadiazol-5-yl)-N-((1-(thiazol-5-ylmethyl)pyrrolidin-3-yl)methyl)piperidine-4-carboxamide] | + (+ >3 and <5) |
| COc1ccc(-c2noc(N3CCC(c4nc5ccccc5[nH]4)CC3)n2)cc1 [Compound 214, 5-(4-(1H-benzo[d]imidazol-2-yl)piperidin-1-yl)-3-(4-methoxyphenyl)-1,2,4-oxadiazole] | + (+ >3 and <5) |
| COc1ccc(-c2noc(N3CCC(C(=O)NCC4CCN(CC(C)C)C4)CC3)n2)cc1 (centres unmarked) [Compound 374, N-((1-isobutylpyrrolidin-3-yl)methyl)-1-(3-(4-methoxyphenyl)-1,2,4-oxadiazol-5-yl)piperidine-4-carboxamide] | + (+ >3 and <5) |
| COc1ccc(-c2noc(N3CCC(C(=O)NCC4CCN(C(C)CO)C4)CC3)n2)cc1 (centres unmarked) [Compound 397, N-((1-(1-hydroxypropan-2-yl)pyrrolidin-3-yl)methyl)-1-(3-(4-methoxyphenyl)-1,2,4-oxadiazol-5-yl)piperidine-4-carboxamide] | − (− ≤3) |
| COc1ccc(-c2cc(N3CCC(C(=O)NCc4cccnc4)CC3)on2)cc1 [Compound 181, 1-(3-(4-methoxyphenyl)isoxazol-5-yl)-N-(pyridin-3-ylmethyl)piperidine-4-carboxamide] | + (+ >3 and <5) |
| COc1ccc(CNC(=O)C2CCN(c3nc(-c4ccc(C(C)C)cc4)no3)CC2)cc1 [Compound 133, 1-(3-(4-isopropylphenyl)-1,2,4-oxadiazol-5-yl)-N-(4-methoxybenzyl)piperidine-4-carboxamide] | + (+ >3 and <5) |
| COc1ccc(-c2noc(N3CCC(C(=O)NCC4CCN(Cc5cccn5C)C4)CC3)n2)cc1 (centres unmarked) [Compound 363, 1-(3-(4-methoxyphenyl)-1,2,4-oxadiazol-5-yl)-N-((1-((1-methyl-1H-pyrrol-2-yl)methyl)pyrrolidin-3-yl)methyl)piperidine-4-carboxamide] | + (+ >3 and <5) |
| Cc1ccc(CN2CCC(CNC(=O)C3CCN(c4nc(-c5cccc(C)c5)no4)CC3)C2)cc1 (centres unmarked) [Compound 186, N-((1-(4-methylbenzyl)pyrrolidin-3-yl)methyl)-1-(3-(m-tolyl)-1,2,4-oxadiazol-5-yl)piperidine-4-carboxamide] | ++ (++ ≥5 and <6) |
| Cc1ccc(CN2CCC(CNC(=O)C3CCN(c4nc(-c5ccc(Cl)cc5)no4)CC3)C2)cc1 (centres unmarked) [Compound 154, 1-(3-(4-chlorophenyl)-1,2,4-oxadiazol-5-yl)-N-((1-(4-methylbenzyl)pyrrolidin-3-yl)methyl)piperidine-4-carboxamide] | ++ (++ ≥5 and <6) |
| COc1ccc(-c2noc(N3CCC(C(=O)NC[C@H]4CC(C)(C)O4)CC3)n2)cc1 [Compound 272, (R)-N-((4,4-dimethyloxetan-2-yl)methyl)-1-(3-(4-methoxyphenyl)-1,2,4-oxadiazol-5-yl)piperidine-4-carboxamide] | + (+ >3 and <5) |
| CCN(CC)CCNC(=O)C1CCN(c2nc(-c3ccc(OC)cc3)no2)CC1 [Compound 114, N-(2-(diethylamino)ethyl)-1-(3-(4-methoxyphenyl)-1,2,4-oxadiazol-5-yl)piperidine-4-carboxamide] | + (+ >3 and <5) |
